Experimental data: US9828385B2, “Spiro-oxazolones” (Hoffmann-La Roche Inc., priority 2014, dated 2017)

Molecular target: T1, human V1a receptor (Homo sapiens, UniProt P37288)
T1 construct: expressed in transfected cells; host or cells: HEK293 cells, transiently transfected; cell membranes
Assay: human V1a receptor binding studies (3H-Vasopressin, SPA beads)
Settings: membranes of HEK293 cells transiently transfected with human V1a receptor, Ki by Cheng-Prussoff from IC50, read-out: pKi hV1a (converted)
Procedure: The human V1a receptor was cloned by RT-PCR from total human liver RNA. The coding sequence was subcloned in an expression vector after sequencing to confirm the identity of the amplified sequence. […] Cell membranes were prepared from HEK293 cells transiently transfected with the expression vector and grown in 20 liter fermenters with the following protocol.
50 g of cells are re-suspended in 30 ml freshly prepared ice cold Lysis buffer (50 mM HEPES, 1 mM EDTA, 10 mM MgCl2 adjusted to pH=7.4+complete cocktail of protease inhibitor (Roche Diagnostics)). Homogenized with Polytron for 1 min and sonicated on ice for 2×2 minutes at 80% intensity (Vibracell sonicator). The preparation is centrifuged 20 min at 500 g at 4° C., the pellet is discarded and the supernatant centrifuged 1 hour at 43′000 g at 4° C. (19′000 rpm). The pellet is re-suspended in 12.5 ml Lysis buffer+12.5 ml Sucrose 20% and homogenized using a Polytron for 1-2 min. The protein concentration is determined by the Bradford method and aliquots are stored at −80° C. until use. For binding studies 60 mg Yttrium silicate SPA beads (Amersham) are mixed with an aliquot of membrane in binding buffer (50 mM Tris, 120 mM NaCl, 5 mM KCl, 2 mM CaCl2, 10 mM MgCl2) for 15 minutes with mixing. 50 μl of bead/membrane mixture is then added to each well of a 96 well plate, followed by 50 μl of 4 nM 3H-Vasopressin (American Radiolabeled Chemicals). For total binding measurement 100 μl of binding buffer are added to the respective wells, for non-specific binding 100 μl of […] cold vasopressin and for compound testing 100 μl of a serial dilution of each compound in 2% DMSO. The plate is incubated 1 h at room temperature, centrifuged 1 min at 1000 g and counted on a Packard Top-Count. Non-specific binding counts are subtracted from each well and data is normalized to the maximum specific binding set at 100%. To calculate an IC 50 the curve is fitted using a non-linear regression model (XLfit) and the Ki is calculated using the Cheng-Prussoff equation.

T1 sequence (P37288 whole entry): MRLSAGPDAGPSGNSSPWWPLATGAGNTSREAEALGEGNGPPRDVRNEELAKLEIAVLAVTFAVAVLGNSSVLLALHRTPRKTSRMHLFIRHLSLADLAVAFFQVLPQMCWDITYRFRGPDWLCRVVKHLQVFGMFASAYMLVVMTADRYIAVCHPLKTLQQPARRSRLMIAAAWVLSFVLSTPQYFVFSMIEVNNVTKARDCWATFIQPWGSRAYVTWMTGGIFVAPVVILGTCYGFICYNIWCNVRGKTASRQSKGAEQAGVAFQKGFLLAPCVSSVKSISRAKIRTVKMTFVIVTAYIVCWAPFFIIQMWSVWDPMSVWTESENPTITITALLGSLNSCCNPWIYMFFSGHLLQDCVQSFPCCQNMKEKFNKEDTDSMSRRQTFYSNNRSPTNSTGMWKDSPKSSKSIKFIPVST

| Compound | Ki |
| --- | --- |
| O=C1N=C(N2CCC3(CC2)OCc2ccccc23)OC1C(O)c1ccccc1 (single isomer, unassigned) [Example 36, 5-(Hydroxy(phenyl)methyl)-2-(1′H,3H-spiro[2-benzofuran-1,4′-piperidin]-1′-yl)-1,3-oxazol-4(5H)-one diastereomer a, enantiomer A] | 31.6 nM |
| O=C1N=C(N2CCC3(CC2)OCc2ccccc23)OC1C(O)c1ccccc1 (single isomer, unassigned) [Example 37, 5-(Hydroxy(phenyl)methyl)-2-(1′H,3H-spiro[2-benzofuran-1,4′-piperidin]-1′-yl)-1,3-oxazol-4(5H)-one diastereomer a, enantiomer B] | 126 nM |
| O=C1N=C(N2CCC3(CC2)OCc2ccccc23)OC1C(O)c1ccccc1 (single isomer, unassigned) [Example 38, 5-(Hydroxy(phenyl)methyl)-2-(1′H,3H-spiro[2-benzofuran-1,4′-piperidin]-1′-yl)-1,3-oxazol-4(5H)-one diastereomer b, enantiomer A] | 794 nM |
| O=C1N=C(N2CCC3(CC2)OCc2ccccc23)OC1C(O)c1ccccc1 (single isomer, unassigned) [Example 39, 5-(Hydroxy(phenyl)methyl)-2-(1′H,3H-spiro[2-benzofuran-1,4′-piperidin]-1′-yl)-1,3-oxazol-4(5H)-one diastereomer b, enantiomer B] | 126 nM |
| O=C1N=C(N2CCC3(CC2)OCc2ccccc23)OC1C(F)c1ccc(Cl)cc1 (single isomer, unassigned) [Example 46, 5-((4-Chlorophenyl)fluoromethyl)-2-(1′H,3H-spiro[2-benzofuran-1,4′-piperidin]-1′-yl)-1,3-oxazol-4(5H)-one diastereomer a, enantiomer A] | 31.6 nM |
| O=C1N=C(N2CCC3(CC2)OCc2ccccc23)OC1C(F)c1ccc(Cl)cc1 (single isomer, unassigned) [Example 47, 5-((4-Chlorophenyl)fluoromethyl)-2-(1′H,3H-spiro[2-benzofuran-1,4′-piperidin]-1′-yl)-1,3-oxazol-4(5H)-one diastereomer a, enantiomer B] | 20 nM |
| O=C1N=C(N2CCC3(CC2)OCc2ccccc23)OC1C(F)c1ccc(Cl)cc1 (single isomer, unassigned) [Example 48, 5-((4-Chlorophenyl)fluoromethyl)-2-(1′H,3H-spiro[2-benzofuran-1,4′-piperidin]-1′-yl)-1,3-oxazol-4(5H)-one diastereomer b, enantiomer A] | 39.8 nM |
| O=C1N=C(N2CCC3(CC2)OCc2ccccc23)OC1C(F)c1ccc(Cl)cc1 (single isomer, unassigned) [Example 49, 5-((4-Chlorophenyl)fluoromethyl)-2-(1′H,3H-spiro[2-benzofuran-1,4′-piperidin]-1′-yl)-1,3-oxazol-4(5H)-one diastereomer b, enantiomer B] | 2 nM |
| O=C1OC2(CCN(C3=NC(=O)C(C(O)c4ccc(Cl)cc4)O3)CC2)c2ccccc21 (single isomer, unassigned) [Example 50, 1′-{-5-[(4-Chlorophenyl)(hydroxy)methyl]-4-oxo-4,5-dihydro-1,3-oxazol-2-yl}-3H-spiro[2-benzofuran-1,4′-piperidin]-3-one diastereomer a, enantiomer A] | 20 nM |
| O=C1OC2(CCN(C3=NC(=O)C(C(O)c4ccc(Cl)cc4)O3)CC2)c2ccccc21 (single isomer, unassigned) [Example 51, 1′-{-5-[(4-Chlorophenyl)(hydroxy)methyl]-4-oxo-4,5-dihydro-1,3-oxazol-2-yl}-3H-spiro[2-benzofuran-1,4′-piperidin]-3-one diastereomer a, enantiomer B] | 158 nM |
| CCCCC1OC(N2CCC3(CC2)OCc2ccccc23)=NC1=O (single isomer, unassigned; (+)) [Example 4, (+)-5-Butyl-2-(1′H,3H-spiro[2-benzofuran-1,4′-piperidin]-1′-yl)-1,3-oxazol-4(5H)-one] | 5.01 nM |
| CCCCC1OC(N2CCC3(CC2)OCc2ccccc23)=NC1=O (single isomer, unassigned; (-)) [Example 3, (−)-5-Butyl-2-(1′H,3H-spiro[2-benzofuran-1,4′-piperidin]-1′-yl)-1,3-oxazol-4(5H)-one] | 50.1 nM |

Results, then the compound that gave them:

| Ki | Compound |
| --- | --- |
| 631 nM | O=C1OC2(CCN(C3=NC(=O)C(C(O)c4ccc(Cl)cc4)O3)CC2)c2ccccc21 (single isomer, unassigned) [Example 52, 1′-{-5-[(4-Chlorophenyl)(hydroxy)methyl]-4-oxo-4,5-dihydro-1,3-oxazol-2-yl}-3H-spiro[2-benzofuran-1,4′-piperidin]-3-one diastereomer b, enantiomer A] |
| 158 nM | O=C1OC2(CCN(C3=NC(=O)C(C(O)c4ccc(Cl)cc4)O3)CC2)c2ccccc21 (single isomer, unassigned) [Example 53, 1′-{-5-[(4-Chlorophenyl)(hydroxy)methyl]-4-oxo-4,5-dihydro-1,3-oxazol-2-yl}-3H-spiro[2-benzofuran-1,4′-piperidin]-3-one diastereomer b, enantiomer B] |
| 25.1 nM | CCCCC1(C)OC(N2CCC3(CC2)OCc2ccccc23)=NC1=O (single isomer, unassigned; (+)) [Example 67, (+)-5-Butyl-5-methyl-2-(1′H,3H-spiro[2-benzofuran-1,4′-piperidin]-1′-yl)-1,3-oxazol-4(5H)-one] |
| 7.94 nM | CC1(Cc2ccccc2)OC(N2CCC3(CC2)OCc2ccccc23)=NC1=O (single isomer, unassigned; (+)) [Example 70, (+)-5-Benzyl-5-methyl-2-(1′H,3H-spiro[2-benzofuran-1,4′-piperidin]-1′-yl)-1,3-oxazol-4(5H)-one] |
| 2.51 nM | CC1(CC2CCCC2)OC(N2CCC3(CC2)OCc2ccccc23)=NC1=O (single isomer, unassigned; (+)) [Example 77, (+)-5-(Cyclopentylmethyl)-5-methyl-2-(1′H,3H-spiro[2-benzofuran-1,4′-piperidin]-1′-yl)-1,3-oxazol-4(5H)-one] |
| 501 nM | CC1(Cc2ccc(Cl)nc2)OC(N2CCC3(CC2)OCc2ccccc23)=NC1=O (single isomer, unassigned; (+)) [Example 84, (+)-5-[(6-Chloropyridin-3-yl)methyl]-5-methyl-2-(1′H,3H-spiro[2-benzofuran-1,4′-piperidin]-1′-yl)-1,3-oxazol-4(5H)-one] |
| 1.26 nM | CC1(Cc2ccc(Cl)s2)OC(N2CCC3(CC2)OCc2ccccc23)=NC1=O (single isomer, unassigned; (+)) [Example 86, (+)-5-[(5-Chlorothiophen-2-yl)methyl]-5-methyl-2-(1′H,3H-spiro[2-benzofuran-1,4′-piperidin]-1′-yl)-1,3-oxazol-4(5H)-one] |
| 251 nM | CCOCC1(C)OC(N2CCC3(CC2)OCc2ccccc23)=NC1=O (single isomer, unassigned; (+)) [Example 96, (+)-5-(Ethoxymethyl)-5-methyl-2-(1′H,3H-spiro[2-benzofuran-1,4′-piperidin]-1′-yl)-1,3-oxazol-4(5H)-one] |
| 200 nM | CCCCC1(C)OC(N2CCC3(CC2)OCc2ccccc23)=NC1=O (single isomer, unassigned; (-)) [Example 68, (−)-5-Butyl-5-methyl-2-(1′H,3H-spiro[2-benzofuran-1,4′-piperidin]-1′-yl)-1,3-oxazol-4(5H)-one] |
